# From ChEMBL document CHEMBL3508693 (2016)
# What was measured:
# CYP1A2 [1] = target: T1, CYP1A2 (Homo sapiens, UniProt P05177); test: Inhibitory activity of 20 uM SPP100 on 502 Pmoles of cDNA-derived CYP1A2 enzyme in microsome prepared from human lymphoblastoid cell line; type: ADME, microsomes; parameters: conc 20 uM, interact cpd conc 50 uM; details: probe phenacetin
# T1 sequence (P05177 whole entry): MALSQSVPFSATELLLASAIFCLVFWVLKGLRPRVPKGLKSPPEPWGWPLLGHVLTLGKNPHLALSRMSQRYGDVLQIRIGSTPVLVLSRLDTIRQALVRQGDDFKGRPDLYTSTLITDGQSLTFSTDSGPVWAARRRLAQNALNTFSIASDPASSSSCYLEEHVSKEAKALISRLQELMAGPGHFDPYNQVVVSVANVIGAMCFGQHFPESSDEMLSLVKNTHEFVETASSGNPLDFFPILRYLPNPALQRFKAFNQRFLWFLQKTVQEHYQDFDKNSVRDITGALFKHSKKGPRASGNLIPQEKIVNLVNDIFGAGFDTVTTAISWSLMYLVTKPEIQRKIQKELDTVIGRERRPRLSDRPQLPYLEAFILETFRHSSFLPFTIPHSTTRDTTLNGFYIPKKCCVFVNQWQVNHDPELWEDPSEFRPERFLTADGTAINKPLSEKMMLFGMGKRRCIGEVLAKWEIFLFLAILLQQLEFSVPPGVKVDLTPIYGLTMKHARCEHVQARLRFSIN
# CYP1A2 [2] = target: T1, CYP1A2; test: Inhibitory activity of 200 uM SPP100 on 484 Pmoles of cDNA-derived CYP1A2 enzyme in microsome prepared from human lymphoblastoid cell line; type: ADME, microsomes; parameters: conc 200 uM, interact cpd conc 50 uM; details: probe phenacetin
# CYP2D6 [3] = target: T2, CYP2D6 (Homo sapiens, UniProt P10635); test: Inhibitory activity of 200 µM SPP100 on cDNA-derived CYP2D6 enzyme in microsome prepared from human lymphoblastoid cell line; type: ADME, microsomes; parameters: conc 200 µM, interact cpd conc 10 uM; details: probe bufuralol (10 uM)
# [4] = % SPP100 recovered in bile following single intravenous administration of 10 mg.Kg-1 [14C] aliskiren hemifumarate in male rat; type: ADME, organism-based, HAN:WIST(SPF); details: in vivo
# [5] = % of radioactivity recovered as aliskiren in urine following intravenous administration of [14C] aliskiren hemifumarate at 10 mg.Kg-1 level in rat; type: ADME, organism-based, Albino HAN:WIST; details: in vivo
# CYP2D6 [6] = target: T2, CYP2D6; test: Inhibition of CYP2D6 in human liver microsomes from 10 healthy donors at 200 uM aliskiren (SPP100); type: ADME, Microsome; parameters: conc 200 uM; details: probe bufuralol (1'-hydroxylation)
# [7] = Excretion (0-168h) of radioactivity in urine following oral administration of [14C] aliskiren hemifumarate at 3 mg.Kg-1 level in marmoset; type: ADME, organism-based, Callithrix jacchus; details: in vivo
# [8] = Excretion (0-168h) of radioactivity in faeces following intravenous administration of [14C] aliskiren hemifumarate at 1 mg.Kg-1 level in marmoset; type: ADME, organism-based, Callithrix jacchus, Feces; details: in vivo
# [9] = AUC of [14C] aliskiren hemifumarate following single intravenous dose of [14C] aliskiren hemifumarate at 10 mg.Kg-1 level in mouse; type: ADME, organism-based, TgRasH2, Plasma; details: in vivo
# [10] = Plasma concentration of [14C] aliskiren hemifumarate in first 4h following single intravenous […] dose of [14C] aliskiren hemifumarate at 10 mg.Kg-1 level in mouse; type: ADME, organism-based, TgRasH2; details: in vivo
# [11] = Excretion of radioactivity (0-24h) in urine following single intravenous dose of 10 mg.Kg-1 [14C] aliskiren hemifumarate in mouse; type: ADME, organism-based, TgRasH2; details: in vivo
# [12] = Mean excretion of radioactivity (24-48h) in urine and faeces following single oral dose of 500 mg.Kg-1 [14C] aliskiren hemifumarate in mouse; type: ADME, organism-based, TgRasH2, Urine/Feces; details: in vivo
# [13] = Tmax (0-96h) of total radioactivity following oral administration of [14C] aliskiren hemifumarate at 100 mg.Kg-1 level in rat; type: ADME, organism-based, Albino HAN:WIST, Plasma; details: in vivo
# [14] = Apparent Vmax value of metabolism of [14C] aliskiren hemifumarate studied in human liver microsome; type: ADME; details: microsomes
# [15] = Plasma clearance (0-96h) of total radioactivity following oral administration of [14C] aliskiren hemifumarate at 100 mg.Kg-1 level in rat; type: ADME, organism-based, Albino HAN:WIST; details: in vivo, iv
# [16] = Concentration of radioactivity in the brown fat following repeated oral administration of [14C] aliskiren hemifumarate at 100 mg.Kg-1 level studied at 24h after 3rd dose in rat; type: ADME, organism-based, Albino HAN:WIST, Brown adipose tissue; details: in vivo
# [17] = AUC of aliskiren hemifumarate following single dosing of SPP100B oral solution at 160 mg level studied on day 1 in men; type: ADME, organism-based; details: male, human, plasma
# [18] = Tmax of aliskiren hemifumarate following 8 day once-daily dosing of SPP100B oral solution at 40 mg level studied on day 8 in men; type: ADME, organism-based; details: male, human, plasma
# [19] = AUC of aliskiren hemifumarate following 8 day once-daily dosing of SPP100B oral solution at 160 mg level studied on day 8 in men; type: ADME, organism-based; details: male, human, plasma
# [20] = Tmax (0-96h) of unlabeled aliskiren hemifumarate following intravenous administration of aliskiren hemifumarate at 10 mg.Kg-1 level in rat; type: ADME, organism-based; details: Albino HAN:WIST, plasma
# [21] = Cmax/dose (0-96h) of unlabeled aliskiren hemifumarate following oral administration of aliskiren hemifumarate at 100 mg.Kg-1 level in rat; type: ADME, organism-based, Albino HAN:WIST, Plasma; details: in vivo
# [22] = Effect of 2 week oral dosing of aliskiren hemifumarate at 100 mg.Kg-1 level on plasma creatinine level in male Callithrix jacchus; type: toxicity, organism-based; details: marmoset, 336 h
# [23] = Effect of 2 week oral dosing of aliskiren hemifumarate at 100 mg.Kg-1 level on plasma magnesium level in male Callithrix jacchus; type: toxicity, organism-based; details: marmoset, 336 h
# [24] = AUC/dose (0-96h) of unlabeled aliskiren hemifumarate following oral administration of aliskiren hemifumarate at 100 mg.Kg-1 level in rat; type: ADME, organism-based, Albino HAN:WIST, Plasma; details: in vivo
# [25] = Effect of 4 week oral dietary dosing of aliskiren hemifumarate at 1500 mg.Kg-1 level on spermatogenesis in male mouse; type: toxicity, organism-based, CB6F1-TGrasH2, Testis; details: in vivo, 672 h
# [26] = Plasma clearance (0-96h) of unlabeled aliskiren hemifumarate following intravenous administration of aliskiren hemifumarate at 10 mg.Kg-1 level in rat; type: ADME, organism-based, Albino HAN:WIST; details: in vivo
# [27] = Cmax/dose of aliskiren hemifumarate following 4 week oral dietary dosing of aliskiren hemifumarate at 2000 mg.Kg-1 level in male mouse; type: ADME, organism-based, CB6F1-TGrasH2; details: in vivo, 672 h
# [28] = AUC (0-24h) of aliskiren hemifumarate following 4 week oral dietary dosing of aliskiren hemifumarate at 500 mg.Kg-1 level in male mouse; type: ADME, organism-based; details: CB6F1-TGrasH2, mouse, plasma
# [29] = Tmax of aliskiren hemifumarate following 2 week oral dosing of aliskiren hemifumarate at 50 mg.Kg-1 level studied on day 1 in male Callithrix jacchus; type: ADME, organism-based; details: marmoset, plasma
# [30] = Tmax of aliskiren hemifumarate following 2 week oral dosing of aliskiren hemifumarate at 100 mg.Kg-1 level studied on day 1 in male Callithrix jacchus; type: ADME, organism-based; details: marmoset, plasma
# [31] = Tmax of aliskiren hemifumarate following 2 week oral dosing of aliskiren hemifumarate at 50 mg.Kg-1 level studied on day 14 in female Callithrix jacchus; type: ADME, organism-based; details: marmoset, plasma
# [32] = AUCspec of aliskiren hemifumarate following 2 week oral dosing of aliskiren hemifumarate at 10 mg.Kg-1 level studied on day 1 in female Callithrix jacchus; type: ADME, organism-based, Plasma; details: marmoset, in vivo, 336 h
# [33] = AUCspec of aliskiren hemifumarate following 2 week oral dosing of aliskiren hemifumarate at 10 mg.Kg-1 level studied on day 14 in female Callithrix jacchus; type: ADME, organism-based, Plasma; details: marmoset, in vivo, 336 h
# [34] = Cmax (0-168h) of unlabeled aliskiren hemifumarate following single oral administration of aliskiren hemifumarate at 3 mg.Kg-1 level in marmoset; type: ADME, organism-based, Callithrix jacchus, Plasma; details: in vivo
# T2 sequence (P10635 whole entry): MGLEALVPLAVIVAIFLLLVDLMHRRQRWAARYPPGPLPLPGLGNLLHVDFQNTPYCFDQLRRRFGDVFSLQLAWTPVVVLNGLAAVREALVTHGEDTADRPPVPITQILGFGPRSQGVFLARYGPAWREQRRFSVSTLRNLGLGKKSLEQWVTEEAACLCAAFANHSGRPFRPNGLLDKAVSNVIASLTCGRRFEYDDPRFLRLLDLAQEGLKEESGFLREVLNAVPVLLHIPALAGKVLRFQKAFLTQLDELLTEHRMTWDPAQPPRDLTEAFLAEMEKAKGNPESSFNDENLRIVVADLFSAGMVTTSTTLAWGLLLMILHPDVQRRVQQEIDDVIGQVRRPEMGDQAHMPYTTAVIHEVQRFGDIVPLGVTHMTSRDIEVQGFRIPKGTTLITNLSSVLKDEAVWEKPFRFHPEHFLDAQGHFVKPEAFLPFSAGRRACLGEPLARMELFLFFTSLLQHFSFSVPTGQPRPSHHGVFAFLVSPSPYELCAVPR
smiles,measurement,setting,value
COCCCOc1cc(C[C@@H](C[C@H](N)[C@@H](O)C[C@H](C(=O)NCC(C)(C)C(N)=O)C(C)C)C(C)C)ccc1OC,inhibition at 20 µM,CYP1A2 [1],2.5%
same,inhibition at 200 µM,CYP1A2 [2],6%
same,inhibition at 200 uM,CYP2D6 [3],37%
same,Compound recovery,[4],64.3%
same,Compound recovery,[5],> 2%
same,inhibition at 200 µM,CYP2D6 [6],32.9%
COCCCOc1cc(C[C@@H](C[C@H](N)[C@@H](O)C[C@H](C(=O)NCC([14CH3])([14CH3])C(N)=O)C(C)C)C(C)C)ccc1OC.O=C(O)/C=C/C(=O)O,Radiolabel recovery,[7],4.5%
same,Radiolabel recovery,[8],72%
same,AUC,[9],5.01 µM·h
same,Compound recovery,[10],94%
same,Radiolabel recovery,[11],69.49%
same,Radiolabel recovery,[12],10.51%
same,Tmax,[13],0.25 h
same,Tmax,"[13]; iv, 10 mg/kg",0.083 h
same,Vmax,[14],1807.6 pmol·min/mg
same,Plasma clearance,[15],1.28 L·h/kg
same,Radiolabel recovery,[16],OUTCOME = Detected
COCCCOc1cc(C[C@@H](C[C@H](N)[C@@H](O)C[C@H](C(=O)NCC(C)(C)C(N)=O)C(C)C)C(C)C)ccc1OC.COCCCOc1cc(C[C@@H](C[C@H](N)[C@@H](O)C[C@H](C(=O)NCC(C)(C)C(N)=O)C(C)C)C(C)C)ccc1OC.O=C(O)/C=C/C(=O)O [ALISKIREN FUMARATE],AUC,[17],215 ng·h/mL
same,Tmax,[18],2.1 h
same,AUC at 192 h,[19],363 ng·h/mL
same,Tmax,[20],4.98 min
same,Cmax normalised,[21],0.0027 (umol/L)/(mg/kg)
same,CREAT_CHANGE_BY,[22],130%
same,Plasma magnesium_CHANGE_BY,[23],130%
same,AUC normalised,[24],0.03 (umol.h/L)/(mg/kg)
same,Change in spermatogenesis,[25],OUTCOME = No abnormalities. No animals died during the study.
same,Plasma clearance,[26],1.2 L·h/kg
same,Cmax normalised,[27],0.22 (ng/mL)/(mg/kg/day)
same,AUC(0-t) at 24 h,[28],1700 ng·h/mL
same,Tmax,[29],1 h
same,Tmax,[30],1 h
same,Tmax,[31],1 h
same,AUC normalised,[32],2.13 ((ug.h.ml-1)/(mg/kg)
same,AUC normalised,[33],2.9 ((ug.h.ml-1)/(mg/kg)
same,Cmax,[34],395 nM
